Patent US8822503B2, “2-pyridone compounds” (Taisho Pharmaceutical Co., Ltd, priority 2009, dated 2014)

Target: T1, human liver GK (Homo sapiens, UniProt P35557)
T1 construct: GST (glutathione S-transferase) (N); made in house; host or cells: E. coli
T1 sequence (P35557 1-466 isoform P35557-2): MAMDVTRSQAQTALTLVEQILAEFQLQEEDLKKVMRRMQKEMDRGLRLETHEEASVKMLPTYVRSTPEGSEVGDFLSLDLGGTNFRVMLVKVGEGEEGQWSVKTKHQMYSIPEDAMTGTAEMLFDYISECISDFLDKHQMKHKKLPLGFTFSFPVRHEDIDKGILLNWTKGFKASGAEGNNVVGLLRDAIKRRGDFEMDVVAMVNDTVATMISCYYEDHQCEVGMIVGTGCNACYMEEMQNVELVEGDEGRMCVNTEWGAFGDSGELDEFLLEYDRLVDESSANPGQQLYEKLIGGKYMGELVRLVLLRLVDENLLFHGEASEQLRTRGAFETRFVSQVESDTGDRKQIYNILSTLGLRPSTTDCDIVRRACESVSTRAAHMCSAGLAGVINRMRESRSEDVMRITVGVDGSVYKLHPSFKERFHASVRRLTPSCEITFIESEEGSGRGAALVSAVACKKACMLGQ
Test: GK activation test
Assay type: biochemical
Conditions: test compound concentration needed to activate 50% of maximum activation ability; 4 mM 14C-labeled glucose, 2 mM ATP, room temperature, 20 minutes
Procedure, shortened: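 GST-tagged human liver GK from E. coli (0.24 μg/well) with 4 mM 14C-glucose, 2 mM ATP in Hepes-KOH pH 7.1, KCl, MgCl2, DTT, 1% DMSO, 20 min room temperature. Labeled glucose 6-phosphate captured on anion resin, eluted and counted. EC50 = concentration giving half of maximal activation.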

Row | EC50 [nM] | Structure (SMILES)
1 | 500 to 3000 | CCc1ccc(C(C[C@H]2CCC(=O)N2)c2ccc(Cl)c(=O)[nH]2)cc1Cl (single isomer, unassigned) [Example 4-324]
2 | 10 to 500 | O=C1CC[C@H](/C=C(\c2ccc(S(=O)(=O)N3CCCC3)cc2)c2ccc(C3CC3)c(=O)[nH]2)N1 [Example 4-136, 3-Cyclopropyl-6-{(E)-2-[(2R)-5-oxopyrrolidin-2-yl]-1-[4-(pyrrolidin-1-ylsulfonyl)phenyl]ethenyl}pyridin-2(1H)-one]
3 | 10 to 500 | Cc1cc(/C(=C\[C@H]2CCC(=O)N2)c2ccc(C3CC3)c(=O)[nH]2)ccc1C(F)(F)F [Example 4-265, 3-Cyclopropyl-6-{(E)-1-[3-methyl-4-(trifluoromethyl)phenyl]-2-[(2R)-5-oxopyrrolidin-2-yl]ethenyl}pyridin-2(1H)-one]
4 | 10 to 500 | COc1ccc(/C(=C\[C@H]2CCC(=O)N2)c2ccc(C3CC3)c(=O)[nH]2)cc1Cl [Example 4-260, 6-{(E)-1-(3-Chloro-4-methoxyphenyl)-2-[(2R)-5-oxopyrrolidin-2-yl]ethenyl}-3-cyclopropylpyridin-2(1H)-one]
5 | 10 to 500 | CCc1ccc(/C(=C/C2CCCC2)c2ccc(SC)c(Cl)c2)[nH]c1=O [Example 1-20, 6-{(E)-1-[3-Chloro-4-(methylsulfanyl)phenyl]-2-cyclopentylethenyl}-3-ethylpyridin-2(1H)-one]
6 | 10 to 500 | CS(=O)(=O)c1ccc(/C(=C\[C@H]2CCC(=O)N2)c2ccc(C3CC3)c(=O)[nH]2)cc1 [Example 4-53, 3-Cyclopropyl-6-{(E)-1-[4-(methylsulfonyl)phenyl]-2-[(2R)-5-oxopyrrolidin-2-yl]ethenyl}pyridin-2(1H)-one]
7 | 500 to 3000 | CSc1ccc([C@]2(c3ccc(C)c(=O)[nH]3)C[C@@H]2C2CCCC2)cc1Cl (relative stereo) [Example 3-1, trans-6-{-1-[3-Chloro-4-(methylsulfanyl)phenyl]-2-cyclopentylcyclopropyl}-3-methylpyridin-2(1H)-one]
8 | 500 to 3000 | Cc1ccc(/C(=C\[C@H]2CCC(=O)N2)c2ccc(Cl)c(=O)[nH]2)cc1C(F)(F)F [Example 4-25, 3-Chloro-6-{(E)-1-[4-methyl-3-(trifluoromethyl)phenyl]-2-[(2R)-5-oxopyrrolidin-2-yl]ethenyl}pyridin-2(1H)-one]
9 | 10 to 500 | CCCCc1ccc(/C(=C\[C@H]2CCC(=O)N2)c2ccc(Cl)c(=O)[nH]2)cc1 [Example 4-17, 6-{(E)-1-(4-Butylphenyl)-2-[(2R)-5-oxopyrrolidin-2-yl]ethenyl}-3-chloropyridin-2(1H)-one]
10 | 10 to 500 | O=C1CC[C@H](CC(c2ccc(OC(F)F)c(Cl)c2)c2ccc(C3CC3)c(=O)[nH]2)N1 (single isomer, unassigned) [Example 4-356]
11 | 3000 to 10000 | CCc1ccc(C(C[C@H]2CCC(=O)N2)c2ccc(Cl)c(=O)[nH]2)cc1Cl (single isomer, unassigned) [Example 4-325]
12 | 500 to 3000 | O=C1CC[C@H](CC(c2ccc(C(F)(F)F)cc2)c2ccc(C3CC3)c(=O)[nH]2)N1 (single isomer, unassigned) [Example 4-248]
13 | 10 to 500 | CC(C)c1ccc(C(C[C@H]2CCC(=O)N2)c2ccc(Cl)c(=O)[nH]2)cc1Cl (single isomer, unassigned) [Example 4-86]
14 | 3000 to 10000 | COc1ccc(C(C[C@H]2CCC(=O)N2)c2ccc(C(C)(C)C)cc2)[nH]c1=O (single isomer, unassigned) [Example 4-245]
15 | 500 to 3000 | CSc1ccc(/C(=C\C2CCCC2)c2ccc(Cl)c(=O)[nH]2)cc1 [Example 1-1, 3-Chloro-6-{(E)-2-Cyclopentyl-1-[4-(methylsulfanyl)phenyl]ethenyl}pyridin-2(1H)-one]
16 | 10 to 500 | CS(=O)(=O)c1ccc(/C(=C\[C@H]2CCC(=O)C2)c2ccc(C3CC3)c(=O)[nH]2)cc1Cl [Example 1-72, 6-{(E)-1-[3-Chloro-4-(methylsulfonyl)phenyl]-2-[(1S)-3-oxocyclopentyl]ethenyl}-3-cyclopropylpyridin-2(1H)-one]
17 | 500 to 3000 | O=C1CC[C@H](CC(c2ccc(C3CC3)cc2)c2ccc(Cl)c(=O)[nH]2)N1 (single isomer, unassigned) [Example 4-317]
18 | 500 to 3000 | O=C1CC[C@H](/C=C(\c2ccc(F)c(C(F)(F)F)c2)c2ccc(C3CC3)c(=O)[nH]2)N1 [Example 4-117, 3-Cyclopropyl-6-{(E)-1-[4-fluoro-3-(trifluoromethyl)phenyl]-2-[(2R)-5-oxopyrrolidin-2-yl]ethenyl}pyridin-2(1H)-one]
19 | 3000 to 10000 | Cc1ccc(C(C[C@H]2CCC(=O)N2)c2ccc(C3CC3)c(=O)[nH]2)cc1Cl (single isomer, unassigned) [Example 4-216]
20 | 10 to 500 | Cc1cc(/C(=C\[C@H]2CCC(=O)N2)c2ccc(Cl)c(=O)[nH]2)ccc1S(=O)(=O)C1CC1 [Example 4-55, 3-Chloro-6-{(E)-1-[4-(cyclopropylsulfonyl)-3-methylphenyl]-2-[(2R)-5-oxopyrrolidin-2-yl]ethenyl}pyridin-2(1H)-one]
21 | 10 to 500 | O=C1CC[C@H](/C=C(\c2ccc(SC3CC3)c(Cl)c2)c2ccc(Cl)c(=O)[nH]2)N1 [Example 4-13, 3-Chloro-6-{(E)-1-[3-chloro-4-(cyclopropylsulfanyl)phenyl]-2-[(2R)-5-oxopyrrolidin-2-yl]ethenyl}pyridin-2(1H)-one]
22 | 10 to 500 | O=c1[nH]c(C(Oc2ccc(F)cc2F)c2ccc(S(=O)(=O)C3CC3)cc2)ccc1C1CC1 (centres unmarked) [Example 7-3, 3-Cyclopropyl-6-[[4-(cyclopropylsulfonyl)phenyl](2,4-difluorophenoxy)methyl]pyridin-2(1H)-one]
23 | 10 to 500 | CC(C)c1ccc(/C(=C/[C@H]2CCC(=O)C2)c2ccc(S(C)(=O)=O)cc2)[nH]c1=O [Example 1-107, 6-{(E)-1-[4-(Methylsulfonyl)phenyl]-2-[(1S)-3-oxocyclopentyl]ethenyl}-3-(propan-2-yl)pyridin-2(1H)-one]
24 | 3000 to 10000 | Cc1ccc(C(C[C@H]2CCC(=O)N2)c2ccc(Cl)c(=O)[nH]2)cc1Cl (single isomer, unassigned) [Example 4-311]
25 | 10 to 500 | CC(C)(C)c1ccc(/C(=C\[C@H]2CCC(=O)N2)c2ccc(CCC3CCCCC3)c(=O)[nH]2)cc1 [Example 4-195, 6-{(E)-1-(4-tert-Butylphenyl)-2-[(2R)-5-oxopyrrolidin-2-yl]ethenyl}-3-(2-cyclohexylethyl)pyridin-2(1H)-one]
26 | 3000 to 10000 | O=c1[nH]c(C(OC2CCCC2)c2ccc(S(=O)(=O)C3CC3)cc2)ccc1C(F)(F)F (centres unmarked) [Example 7-2, 6-{(Cyclopentyloxy)[4-(cyclopropylsulfonyl)phenyl]methyl}-3-(trifluoromethyl)pyridin-2(1H)-one]
27 | 10 to 500 | O=C1CC[C@H](CC(c2ccc(C(F)(F)F)c(Cl)c2)c2ccc(C3CC3)c(=O)[nH]2)N1 (single isomer, unassigned) [Example 4-254]
28 | 500 to 3000 | CC(C)(C)c1ccc(/C(=C\CN2CCCS2(=O)=O)c2ccc(Cl)c(=O)[nH]2)cc1 [Example 6-7, 6-[(1E)-1-(4-tert-Butylphenyl)-3-(1,1-dioxido-1,2-thiazolidin-2-yl)prop-1-en-1-yl]-3-chloropyridin-2(1H)-one]
29 | 3000 to 10000 | O=C1CC[C@H](CC(c2ccc(OC(F)F)cc2)c2ccc(C3CC3)c(=O)[nH]2)N1 (single isomer, unassigned) [Example 4-230]
